From patent US9688722B2, “Substrates and inhibitors of prolyl oligopeptidase and methods of use” (The Board of Regents of the University of Oklahoma, priority 2012, dated 2017)
Values joined by “and” are separate entries in the source; they are usually repeats but may differ in a detail not shown here. Equal entries are not always repeated.

Legend:
[1] = molecular target: T1, APCE/FAP (Homo sapiens, UniProt Q12884); assay: APCE/FAP inhibition constants (Ki) with Tic-Pro-AFC substrate; type: biochemical; details: substrate Tic-Pro-AFC
T1 construct: absence of an about 26-residue amino terminal peptide constituting the transmembrane and intracytosolic domains; from tissue
T1 sequence (Q12884 24-760 limits assumed): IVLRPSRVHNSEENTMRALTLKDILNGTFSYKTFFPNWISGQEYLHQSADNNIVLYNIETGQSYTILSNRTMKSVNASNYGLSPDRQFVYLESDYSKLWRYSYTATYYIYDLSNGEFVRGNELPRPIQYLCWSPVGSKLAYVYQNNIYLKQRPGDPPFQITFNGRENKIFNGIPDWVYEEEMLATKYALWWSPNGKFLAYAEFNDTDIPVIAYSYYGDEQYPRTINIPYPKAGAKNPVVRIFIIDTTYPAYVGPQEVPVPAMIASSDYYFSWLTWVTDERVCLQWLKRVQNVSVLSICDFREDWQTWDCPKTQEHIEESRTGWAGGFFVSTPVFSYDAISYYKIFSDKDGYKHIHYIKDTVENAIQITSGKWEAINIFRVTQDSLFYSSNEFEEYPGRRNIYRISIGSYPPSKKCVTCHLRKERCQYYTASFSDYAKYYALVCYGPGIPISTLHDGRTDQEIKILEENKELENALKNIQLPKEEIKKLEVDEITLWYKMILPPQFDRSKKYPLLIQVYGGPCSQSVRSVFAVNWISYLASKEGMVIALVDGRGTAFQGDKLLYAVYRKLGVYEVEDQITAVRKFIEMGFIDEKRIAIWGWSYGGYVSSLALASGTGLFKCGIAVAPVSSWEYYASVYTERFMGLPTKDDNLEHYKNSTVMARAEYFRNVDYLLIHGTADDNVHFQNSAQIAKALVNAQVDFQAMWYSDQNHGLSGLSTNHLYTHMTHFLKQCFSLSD
Procedure: (§1) For accurate assessment of kinetic parameters, saturating concentrations of substrate were used. For standard curves, dilutions of AFC (7-amino-4-trifluoromethylcoumarin) were prepared in the same assay buffer and corresponding fluorescence was measured.

[2] = molecular target: DPPIV (Homo sapiens, UniProt P27487); assay: DPPIV inhibition constants (Ki) with Tic-Pro-AFC substrate; type: biochemical
Chain of DPPIV (P27487 whole entry, species assumed): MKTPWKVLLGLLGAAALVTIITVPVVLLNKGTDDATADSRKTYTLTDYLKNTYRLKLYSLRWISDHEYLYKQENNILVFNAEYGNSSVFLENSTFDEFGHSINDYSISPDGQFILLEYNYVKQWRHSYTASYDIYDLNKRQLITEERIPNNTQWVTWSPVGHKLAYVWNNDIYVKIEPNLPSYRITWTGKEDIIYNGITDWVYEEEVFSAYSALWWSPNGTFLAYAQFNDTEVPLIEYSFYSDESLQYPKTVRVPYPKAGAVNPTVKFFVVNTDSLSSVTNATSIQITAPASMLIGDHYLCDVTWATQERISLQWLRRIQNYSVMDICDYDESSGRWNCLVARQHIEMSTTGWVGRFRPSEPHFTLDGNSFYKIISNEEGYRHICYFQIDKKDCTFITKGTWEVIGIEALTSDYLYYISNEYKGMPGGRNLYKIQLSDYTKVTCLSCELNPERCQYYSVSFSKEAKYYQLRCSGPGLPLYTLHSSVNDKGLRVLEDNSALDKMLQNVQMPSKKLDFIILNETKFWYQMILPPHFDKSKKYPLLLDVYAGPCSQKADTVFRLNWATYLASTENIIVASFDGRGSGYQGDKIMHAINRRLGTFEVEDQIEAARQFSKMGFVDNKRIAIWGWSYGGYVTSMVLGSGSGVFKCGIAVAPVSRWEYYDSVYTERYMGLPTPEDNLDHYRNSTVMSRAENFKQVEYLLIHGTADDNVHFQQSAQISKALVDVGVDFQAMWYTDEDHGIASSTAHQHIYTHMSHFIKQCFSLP
Procedure: as §1

[3] = molecular target: T2, POP (Homo sapiens, UniProt P48147); assay: POP inhibition constants (Ki) with Tic-Pro-AFC substrate; type: biochemical
T2 sequence (P48147 1-710): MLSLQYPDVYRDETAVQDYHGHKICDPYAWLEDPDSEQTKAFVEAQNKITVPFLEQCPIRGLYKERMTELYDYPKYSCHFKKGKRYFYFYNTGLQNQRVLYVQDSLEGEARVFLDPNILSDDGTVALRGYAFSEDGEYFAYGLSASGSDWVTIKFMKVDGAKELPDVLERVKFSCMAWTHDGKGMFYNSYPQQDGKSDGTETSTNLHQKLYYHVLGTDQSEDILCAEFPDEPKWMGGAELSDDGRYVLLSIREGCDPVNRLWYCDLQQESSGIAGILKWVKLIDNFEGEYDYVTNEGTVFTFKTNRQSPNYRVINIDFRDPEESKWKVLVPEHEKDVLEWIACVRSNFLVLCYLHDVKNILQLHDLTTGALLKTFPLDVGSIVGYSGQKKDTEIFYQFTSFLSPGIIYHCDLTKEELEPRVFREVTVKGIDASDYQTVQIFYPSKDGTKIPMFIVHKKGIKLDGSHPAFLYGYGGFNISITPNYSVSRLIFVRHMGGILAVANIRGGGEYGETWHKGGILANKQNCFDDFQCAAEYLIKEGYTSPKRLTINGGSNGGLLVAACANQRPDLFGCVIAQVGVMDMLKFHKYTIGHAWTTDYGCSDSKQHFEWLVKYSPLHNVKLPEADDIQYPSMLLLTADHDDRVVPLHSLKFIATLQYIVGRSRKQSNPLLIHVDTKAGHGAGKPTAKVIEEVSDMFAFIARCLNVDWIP
Procedure: as §1

[4] = test system: HCT116 human colon cancer xenografts; assay: HCT116 human colon cancer xenografts in immunodeficient mice; type: in vivo; details: 28-day treatment period
[5] = Aqueous solubility; type: physicochemical; details: result in words
Procedure: The specific POP inhibitor, J94 (acetyl-Lys-Leu-Arg-(L)boroPro (Ki<100 nM)); and the substrate, C95 (acetyl-Arg-AEEA-Gly-Pro-AMC), were designed, synthesized and characterized by us as previously reported. […] The inhibitors (J94 and M83) were dissolved in Hanks Balanced Salt Solution (HBSS; Gibco) at 1 mM and stored at −20° C. The substrate (C95) was dissolved in HBSS at 2.5 mM and stored at 4° C. […] Tic-Pro-AFC, a prolyl-specific fluorescent substrate, was supplied by Vantia (Southampton, England).

Structure (SMILES): CC(=O)N[C@@H](CCCNC(=N)N)C(=O)NCCOCCOCC(=O)N[C@H](C)C(=O)N1CCC[C@H]1B(O)O [Compound M83, acetyl-Arg-AEEA-(D)Ala-(L)boroPro]
- Ki [1]: 0.0057 µM
- Selectivity Ki (DPPIV) / Ki (APCE-FAP) ([2]; ratio of Ki values): 1076
- inhibition of DPPIV ([2]; result in words): nor was it inhibited
- Ki ([2]; substrate Tic-Pro-AFC): 6.13 µM and 6.14 µM
- Selectivity Ki (POP) / Ki (APCE/FAP) ([3]; ratio of Ki values): 1.3
- Ki ([3]; substrate Tic-Pro-AFC): 0.0074 µM
- effectiveness on cancer growth relative to J94 [4]: slightly more effective than this
- solubility in aqueous buffers [5]: soluble in aqueous buffers
